Earlier results as cited in patent US6409990B1, “Macromolecular carrier for drug and diagnostic agent delivery” (The Regents of the University of California, priority 1999, dated 2002).

Details: similar time postinjection; Grist TM et al.

In the case of O=C([O-])CN(CCN(CC(=O)[O-])C[C@H](COP(=O)([O-])OC1CCC(c2ccccc2)(c2ccccc2)CC1)N(CC(=O)[O-])CC(=O)[O-])CC(=O)[O-].[Gd+3].[H+].[H+].[H+] [MS-325], the “typical CNR in the human aorta” value is listed as 42.
